From ChEMBL document CHEMBL3639109, “Macrocyclic integrase inhibitors” (2013)

Each molecule was assayed against Gag-Pol polyprotein (Human immunodeficiency virus type 1 group M subtype B (isolateBRU/LAI) (HIV-1), UniProt P03367) (assay: Inhibition Assay: Inhibition of HIV integrase.).

| SMILES | IC50 |
| --- | --- |
| CNS(=O)(=O)CCCCC#N | 1.6 µM |
| CNS(=O)(=O)CCCCN | 0.36 µM |
| CNS(=O)(=O)CCCCN=[N+]=[N-] | 0.25 µM |

Other lines, results leading:

| IC50 | SMILES |
| --- | --- |
| 0.95 µM | COC(=O)c1nc(Br)c2cccnc2c1OCc1ccccc1 |
| 1 µM | CNS(=O)(=O)CCCCCl |
| 68 µM | CCOC(=O)c1cc(F)ccc1C#N |
| 0.2 µM | COC(=O)c1nc(Br)c2cccnc2c1OS(=O)(=O)c1ccc(C)cc1 |
| 1.2 µM | CNS(=O)(=O)CCCCNC(=O)OC(C)(C)C |
